Assay results taken from patent US20200405697A1, “Antitumor Agent” (Taiho Pharmaceutical Co., Ltd, priority 2017, published 2020).
pIC50: −log10 of the molar value.

molecular target: T1, human RNR (histidine tagged human M1 and human M2 proteins) (Homo sapiens, UniProt P23921); experiment: Human RNR inhibition effect (dCDP formation from CDP); assay type: biochemical; conditions: 10 μM CDP, 37° C. for 30 minutes, read-out: RNR inhibitory activity IC50
T1 construct: made in house; host or cells: Escherichia coli
T1 sequence (P23921 1-792): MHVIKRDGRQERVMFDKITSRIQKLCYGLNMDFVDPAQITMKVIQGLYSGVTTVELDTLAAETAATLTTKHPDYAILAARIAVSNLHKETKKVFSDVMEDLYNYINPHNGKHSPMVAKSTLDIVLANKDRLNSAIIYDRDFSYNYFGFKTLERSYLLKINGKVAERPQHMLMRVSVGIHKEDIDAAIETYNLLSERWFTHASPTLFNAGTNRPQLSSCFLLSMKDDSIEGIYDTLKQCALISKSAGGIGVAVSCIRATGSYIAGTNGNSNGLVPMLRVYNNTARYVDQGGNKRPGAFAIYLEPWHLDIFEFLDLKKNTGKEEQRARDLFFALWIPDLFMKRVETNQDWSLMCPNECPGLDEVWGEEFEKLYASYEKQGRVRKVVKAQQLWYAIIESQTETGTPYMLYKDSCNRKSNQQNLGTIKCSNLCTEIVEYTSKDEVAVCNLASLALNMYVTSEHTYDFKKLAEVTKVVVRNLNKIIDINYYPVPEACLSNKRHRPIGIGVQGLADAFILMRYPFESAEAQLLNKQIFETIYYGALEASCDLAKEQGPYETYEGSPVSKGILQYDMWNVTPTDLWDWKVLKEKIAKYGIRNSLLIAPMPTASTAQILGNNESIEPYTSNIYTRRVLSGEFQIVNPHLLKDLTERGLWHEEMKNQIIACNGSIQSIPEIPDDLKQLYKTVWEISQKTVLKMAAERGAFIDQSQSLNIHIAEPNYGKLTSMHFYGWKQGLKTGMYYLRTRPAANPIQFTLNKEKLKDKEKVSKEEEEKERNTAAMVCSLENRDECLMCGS
How it was run: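 His-tagged human M1 (isoform 1) and N-terminal 59-aa-truncated M2 (isoform 2), E. coli-expressed, Ni-purified, preincubated 20 min with compound (1% DMSO). Reaction with 10 μM CDP, 2 mM ATP, 0.24 mM NADPH, 6 mM DTT, 4 mM Mg acetate, 100 mM KCl, 50 mM HEPES pH 7.2, 30 min at 37° C. dCDP formed quantified by reverse-phase HPLC after heat stop.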

Q: With `COc1cc(Cl)ccc1S(=O)(=O)N[C@H](c1n[nH]c(=O)o1)[C@H](C)c1c(F)ccc(-c2cncnc2)c1C` [Example 318, 4-chloro-N-((1S,2R)-2-(6-fluoro-2-methyl-3-(pyrimidin-5-yl)phenyl)-1-(5-oxo-4,5-dihydro-1,3,4-oxadiazol-2-yl)propyl)-2-methoxybenzenesulfonamide] as the molecule, how does the pIC50 read?
A: The pIC50 was 6.27.

Q: `Cc1cccc(F)c1[C@H](C)[C@H](NS(=O)(=O)c1ccc(Cl)cc1C(N)=O)c1n[nH]c(=O)o1` [Example 23, 5-chloro-2-(N-((1S,2S)-2-(2-fluoro-6-methylphenyl)-1-(5-oxo-4,5-dihydro-1,3,4-oxadiazol-2-yl)propyl)sulfamoyl)benzainide] was tested. Which pIC50 did it give?
A: Its pIC50 is 6.13.

Q: With `COc1c(S(=O)(=O)N[C@H](c2n[nH]c(=O)o2)[C@H](C)c2c(F)ccc(C)c2C)ncc(Cl)c1C(C)OC(C)=O` (stereo partly drawn) [Example 120, 1-(5-chloro-2-(N-((1S,2R)-2-(6-fluoro-2,3-dimethylphenyl)-1-(5-oxo-4,5-dihydro-1,3,4-oxadiazol-2-yl)propyl)sulfamoyl)-3-methoxypyridin-4-yl)ethylacetate] as the molecule, how does the pIC50 read?
A: Its pIC50 is 6.37.

Q: `Cc1ccc(S(=O)(=O)N[C@H](c2n[nH]c(=O)o2)[C@H](C)c2c(F)ccc(C)c2C)c(C(N)=O)c1` [Example 10, 2-(N-((1S,2R)-2-(3-6-fluoro-2,3-dimethylphenyl)-1-(5-oxo-4,5-dihydro-1,3,4-oxadiazol-2-yl)propyl)sulfamoyl)-5-methylbenzamide] was tested. Which pIC50 did it give?
A: The pIC50 was 6.85.

Q: How did the pIC50 turn out when `CC(O)c1cc(S(=O)(=O)N[C@H](c2n[nH]c(=O)o2)[C@H](C)c2cccc3c2CCC3)ccc1Cl` (stereo partly drawn) [Example 231, 4-chloro-N-((1S,2R)-2-(2,3-dihydro-1H-inden-4-yl)-1-(5-oxo-4,5-dihydro-1,3,4-oxadiazol-2-yl)propyl)-3-(1-hydroxyethyl)benzensulfonamide] was run?
A: The pIC50 was 6.19.

Q: How did the pIC50 turn out when `Cc1ccc(F)c([C@@H](C)[C@H](NS(=O)(=O)c2ccc(C(F)(F)F)c3c2OCCC3O)c2n[nH]c(=O)o2)c1C` (single isomer, unassigned) [Example 244A] was run?
A: The pIC50 was 7.05.

Q: With `COc1cc(Cl)ccc1S(=O)(=O)N[C@H](c1n[nH]c(=O)o1)[C@H](C)c1cccc2c1CC(C)C2` (stereo partly drawn) [Example 67, 4-chloro-2-methoxy-N-((1S,2R)-2-(2-methyl-2,3-dihydro-1H-inden-4-yl)-1-(5-oxo-4,5-dihydro-1,3,4-oxadiazol-2-yl)propyl)benzenesulfonamide] as the molecule, how does the pIC50 read?
A: Its pIC50 is 6.15.

Q: How did the pIC50 turn out when `Cc1ccc(F)c([C@@H](C)[C@H](NS(=O)(=O)c2ccc3[nH]nnc3c2)c2n[nH]c(=O)o2)c1C` [Example 181, N-((1S,2R)-2-(6-fluoro-2,3-dimethylphenyl)-1-(5-oxo-4,5-dihydro-1,3,4-oxadiazol-2-yl)propyl)-1H-benzo[d][1,2,3]triazole-5-sulfonamide] was run?
A: The pIC50 was 6.18.

Q: With `COc1ccc(-c2ccc(F)c([C@@H](C)[C@H](NS(=O)(=O)c3ccc(Cl)cc3OC)c3n[nH]c(=O)o3)c2C)cc1` [Example 298, 4-chloro-N-((1S,2R)-2-(4-fluoro-4′-methoxy-2-methyl-[1,1′-biphenyl]-3-yl)-1-(5-oxo-4,5-dihydro-1,3,4-oxadiazol-2-yl)propyl)-2-methoxybenzenesulfonamide] as the molecule, how does the pIC50 read?
A: The pIC50 was 6.52.

Q: `CCc1cccc([C@@H](C)[C@H](NS(=O)(=O)c2ccc(Cl)cc2OC)c2n[nH]c(=O)o2)c1C` [Example 86, 4-chloro-N-((1S,2R)-2-(3-ethyl-2-methylphenyl)-1-(5-oxo-4,5-dihydro-1,3,4-oxadiazol-2-yl)propyl)-2-methoxybenzenesulfonamide] was tested. Which pIC50 did it give?
A: Its pIC50 is 6.40.

Q: How did the pIC50 turn out when `Cc1ccc(F)c([C@@H](C)[C@H](NS(=O)(=O)c2ccc(Cl)c(C(=O)O)n2)c2n[nH]c(=O)o2)c1C` [Example 215, 3-chloro-6-(N-((1S,2R)-2-(6-fluoro-2,3-dimethylphenyl)-1-(5-oxo-4,5-dihydro-1,3,4-oxadiazol-2-yl)propyl)sulfamoyl)picolinic acid] was run?
A: The pIC50 was 6.72.

Q: With `C[C@H](c1cccc2c1-c1ccccc1C2)[C@H](NS(=O)(=O)c1ccc(Br)cn1)c1n[nH]c(=O)o1` [Example 50, N-((1S,2R)-2-(9H-fluoren-4-yl)-1-(5-oxo-4,5-dihydro-1,3,4-oxadiazol-2-yl)propyl)-5-bromopyridine-2-sulfonamide] as the molecule, how does the pIC50 read?
A: Its pIC50 is 6.07.

Q: How did the pIC50 turn out when `COc1cc(Cl)ccc1S(=O)(=O)N[C@H](c1n[nH]c(=O)o1)[C@H](C)c1c(F)ccc(-c2cnc3c(c2)OCCN3C)c1C` [Example 322, 4-chloro-N-((1S,2R)-2-(6-fluoro-2-methyl-3-(4-methyl-3,4-dihydro-2H-pyrido[3,2-b][1,4]oxazine-7-yl)phenyl)-1-(5-oxo-4,5-dihydro-1,3,4-oxadiazol-2-yl)propyl)-2-methoxybenzenesulfonamide] was run?
A: Its pIC50 is 6.66.

Q: With `Cc1ccc(F)c([C@@H](C)[C@H](NS(=O)(=O)c2ccc(Br)cc2C#N)c2n[nH]c(=O)o2)c1C` [Example 92, 4-bromo-2-cyano-N-((1S,2R)-2-(6-fluoro-2,3-dimethylphenyl)-1-(5-oxo-4,5-dihydro-1,3,4-oxadiazol-2-yl)propyl)benzenesulfonamide] as the molecule, how does the pIC50 read?
A: The pIC50 was 6.70.

Q: With `COc1cc(Cl)ccc1S(=O)(=O)N[C@H](c1n[nH]c(=O)o1)[C@H](C)c1c(F)ccc2ccccc12` [Example 76, 4-chloro-N-((1S,2R)-2-(2-fluoronaphthalen-1-yl)-1-(5-oxo-4,5-dihydro-1,3,4-oxadiazol-2-yl)propyl)-2-methoxybenzenesulfonamide] as the molecule, how does the pIC50 read?
A: Its pIC50 is 6.70.

Q: With `Cc1ccc(F)c([C@@H](C)[C@H](NS(=O)(=O)c2ccc3c(c2)C(C)(O)CCO3)c2n[nH]c(=O)o2)c1C` (stereo partly drawn) [Example 195, N-((1S,2R)-2-(6-fluoro-2,3-dimethylphenyl)-1-(5-oxo-4,5-dihydro-1,3,4-oxadiazol-2-yl)propyl)-4-hydroxy-4-methylchroman-6-sulfonamide] as the molecule, how does the pIC50 read?
A: The pIC50 was 6.74.

Q: How did the pIC50 turn out when `CCc1ccc(F)c([C@@H](C)[C@H](NS(=O)(=O)c2ccc(Br)cc2C(N)=O)c2n[nH]c(=O)o2)c1C` [Example 96, 5-bromo-2-(N-((1S,2R)-2-(3-ethyl-6-fluoro-2-methylphenyl)-1-(5-oxo-4,5-dihydro-1,3,4-oxadiazol-2-yl)propyl)sulfamoyl)benzamide] was run?
A: Its pIC50 is 7.00.

Q: With `Cc1ccc(F)c([C@@H](C)[C@H](NS(=O)(=O)c2ccc(F)c3c2OCCC3O)c2n[nH]c(=O)o2)c1C` (single isomer, unassigned) [Example 230A] as the molecule, how does the pIC50 read?
A: The pIC50 was 6.92.

Q: How did the pIC50 turn out when `CC(=O)N1CCOc2c(S(=O)(=O)N[C@H](c3n[nH]c(=O)o3)[C@H](C)c3cccc(C)c3C)ccc(Cl)c21` [Example 284, 4-acetyl-5-chloro-N-((1S,2R)-2-(2,3-dimethylphenyl)-1-(5-oxo-4,5-dihydro-1,3,4-oxadiazol-2-yl)propyl)-3,4-dihydro-2H-benzo[b][1,4]oxazine-8-sulfonamide] was run?
A: Its pIC50 is 6.25.

Q: How did the pIC50 turn out when `Cc1ccc(F)c([C@@H](C)[C@H](NS(=O)(=O)c2ccc(C(F)(F)F)c3c2OCCC3O)c2n[nH]c(=O)o2)c1C` (single isomer, unassigned) [Example 244B] was run?
A: Its pIC50 is 6.66.

Q: How did the pIC50 turn out when `Cc1ccc(F)c([C@@H](C)[C@H](NS(=O)(=O)c2ccc3c(c2)N(C)CCC3)c2n[nH]c(=O)o2)c1C` [Example 184, N-((1S,2R)-2-(6-fluoro-2,3-dimethylphenyl)-1-(5-oxo-4,5-dihydro-1,3,4-oxadiazol-2-yl)propyl)-1-methyl-1,2,3,4-tetrahydroquinoline-7-sulfonamide] was run?
A: The pIC50 was 6.66.
